Literature values in patent US20060188529A1 (priority 2004, published 2006).

Test system: apo EKO mice
[1] = fenofibrate added to phytosterols

For `CC(C)OC(=O)C(C)(C)Oc1ccc(C(=O)c2ccc(Cl)cc2)cc1` [fenofibrate, 2-[4-(4-chlorobenzoyl)phenoxy]-2-methyl-propanoic acid, 1-methylethyl ester], the “effect on plasma triglyceride levels” value (combination of fenofibrate to phytosterols) is listed as “no effect”, the “decrease of HDL cholesterol concentrations” value [1] is listed as 50% and the “increase of plasma total cholesterol levels” value [1] is listed as over 50%.
